# “Also recorded” adds a separate entry of the source.
# Tests used:
# [1] = test system: rat peritoneal neutrophils; test: Transmigration and chemotaxis assay (Transwell); assay type: cell-based; conditions: rhPBEF (10 ng/ul) or casein in lower chamber, up to 4 hours
# Description: Chemotaxis of rat peritoneal neutrophils (calcein-AM) across 3 μm polycarbonate filters was assessed in response to recombinant human PBEF/visfatin (rhPBEF, PeproTech, Rocky Hill, N.J.), or casein (positive control). (See Supplemental Methods for additional details).
# Neutrophils were collected from retired breeder male Harlan-Sprague Dawley rats by intraperitoneal injection of 2.5% casein (5 ml). The resulting peritoneal fluid was recovered by PBS peritoneal lavage after 18 hr, centrifuged and examined for total cell counts and cell differentiation. For chemotaxis assays, leukocytes were exposed to calcein-AM in the presence of plurionic acid for 1 hr at room temperature. The temperature was then elevated to 37° C. for 30 min to cleave the calcein AM thereby reducing the rate of calcein diffusion out of the cells. […] The receiving wells were assessed serially in a fluorescent plate reader with absorption at 494 nm and emission measured at 517 nm. Fluorescence was recorded at 5, 10, 15, 30 min and each subsequent 30 min period for up to 4 hr. Aliquots of known numbers of neutrophils were counted in separate wells at each time point to account for any quenching of the fluorescence over time.
# [2] = test system: C57BL/6 mice; test: Lung RNA microarray analysis (SAM dysregulated genes) with RT-PCR and BAL ELISA validation; assay type: in vivo, mouse
# Description: Total lung RNA was isolated as described previously (Nonas et al., 2007). Affymetrix Mouse430_2 arrays (Affymetrix Inc., Santa Clara, Calif.) were utilized. Chip quality (Li and Wong, 2001) and ‘present’ or ‘absent’ expression calls were determined by GeneChip® Operating Software (GCOS) (GSE9368-rhPBEF, GSE9314-PBEF^+/−). Intensities and normalization of probe sets were calculated by Bioconductor software (GCRMA package) (Team RDC, 2005). To identify differentially-expressed genes, pairwise comparisons were conducted using Significance Analysis of Microarrays (SAM) as previously described (Nonas et al., 2007). Gene filtering parameters and results are summarized in Supplementary Table E2. Differentially-expressed genes displaying>2 fold changes are referred to as “dysregulated genes”.
# Dysregulated gene functional profiles were analyzed using Onto-Express with the number of genes in each GO biological process category (Wu et al., 2004) compared with all genes on the […] chip to determine the significance of the GO category (Consortium, 2006). Ingenuity Pathway Analysis (IPA) software (containing individually modeled relationships between gene objects e.g. genes, mRNAs, proteins) was utilized to dynamically generate significant regulatory and signaling networks or pathways. The significance of a canonical pathway is controlled by the p-value calculated using the right-tailed Fisher Exact Test for 2×2 contingency tables. (See Supplemental Methods).
# Lung total RNA was isolated from whole rodent lung tissue for microarray experiment as we have described previously (9) using the Affymetrix GeneChip platform and Expression Analysis Manual protocols (Affymetrix Inc., Santa Clara, Calif.). The signal intensity fluorescent images produced during Affymetrix GeneChip Mouse430_2 Array hybridizations were scanned using the Hewlett-Packard GeneArray Scanner G2500A. The ‘Present’ or ‘Absent’ calls of the probe sets in the expression chips were determined by GCOS (GeneChip® Operating Software) software. The microarray data have been submitted to the National Center for Biotechnology Information (NCBI)'s Gene Expression Omnibus repository (GSE9368 for rhPBEF study and GSE9314 for PBEF^+/− study). Chip quality (RNA degradation, cDNA synthesis, hybridization, chip washing, scanning) was evaluated with GCOS, dChip (Li and Wong, 2001) and Bioconductor ‘affy’ packages. All RNA samples and chips adopted in current study passed the quality criteria (data not shown). The intensities of probe sets were calculated by the GC Robust Multichip Average (GCRMA) package of Bioconductor software for normalization (Team RDC, 2005). To identify differentially-expressed genes, pairwise comparisons were conducted using Significance Analysis of Microarrays (SAM) (see the SAM online manual for detailed explanations of the blocking approach, www-stat.stanford.edu/˜tibs/SAM) as we have previously described (Nonas et al., 2007). Only probe sets present (determined by Affy ‘P’-call) in three replicates of at least one group with mean intensity above 100 were used for further data mining. The gene filtering parameters and results were summarized in Supplementary Table E2. […] For probe sets representing the same Entrez Gene or UniGene ID, only the probe set with lowest FDR or highest fold changes was included in the gene list.
# Dysregulated genes were uploaded into the IPA software (http://www.ingenuity.com), a web-delivered application which utilizes the Ingenuity Pathways Knowledge Base (IPKB) containing a robust number of individually modeled relationships between gene objects (e.g. genes, mRNAs, proteins), in order to dynamically generate significant regulatory and signaling networks or pathways. […]
substance,measurement,setting,value
"rhPBEF: Recombinant human soluble PBEF/visfatin, a 52 kDa protein containing 465 amino acid residues, purchased from PeproTech",PMN migration across Transwell filters,[1],significant PMN migration beginning after 2 hrs; also recorded: significant PMN migration beginning at 2 hrs
same,dysregulated genes in the NFκB pathway,"[2]; VILIa-rhPBEF combined exposure, Ingenuity Pathway Analysis",21
same,"CxCL1 (KC) DNA microarray, average fold change increase over control",[2]; rhPBEF,510 fold change
same,"Map3k8 DNA microarray, average fold change increase over control",[2]; rhPBEF,3 fold change
same,"TNF-α DNA microarray, average fold change increase over control",[2]; rhPBEF,23 fold change
same,"BCL3 DNA microarray, average fold change increase over control",[2]; rhPBEF VILIa,11 fold change
same,"CxCL1 (KC) DNA microarray, average fold change increase over control",[2]; rhPBEF VILIa,589 fold change
same,"CxCL2 (MIP2α) DNA microarray, average fold change increase over control",[2]; rhPBEF VILIa,2128 fold change
same,"MMP9 DNA microarray, average fold change increase over control",[2]; rhPBEF VILIa,13 fold change
same,Unique Down,"[2]; rhPBEF vs. Control, SAM, fold change 2",118

# From US9409983B2, “Methods and compositions involving PBEF inhibitors for lung inflammation conditions and diseases” (The Board of Trustess of the University of Illinois, priority 2009, dated 2016)
